Test results from patent publication US20250113823A1, “Arthropod Control Compositions” (priority 2022, published 2025).

Tested on: Aedes aegypti
Assay: Free flying room assay, spatial repellence with human volunteer
Type: in vivo
Description: The goal of this large-scale test is to assess the propensity of stimulus released in the air to protect a human volunteer by limiting the mosquito presence in a protected space and the number of landing/biting. The protocol used to carry the test is following the guidelines indicated in WHO (2013; ISBN 978 92 4 150502 4).
A group of 50 Aedes aegypti female mosquitoes were introduced in one chamber of 25 m^3 one hour before the test started. The product was applied in the other chamber of 25 m^3 (“treated chamber”) and let evaporate for 30 minutes. The test started when the window separating the two chambers was opened in a tilt-on manner for another 30 minutes. Twenty minutes after the window was opened, a volunteer entered in the “treated chamber” and sat down for 10 minutes, exposing the forearm for the last 3 minutes to determine the probing activity (Protective Efficacy). Then, the connecting window was closed and the number of mosquitoes in each of the chambers was counted (Spatial Repellency). The negative controls were carried out following the same procedure but without the application of the stimulus. Three replicates of each treatment and of the negative control were conducted with three different volunteers.

CCCc1cc(OC)c(OC)c(OC)c1 [compound 1975, 1,2,3-trimethoxy-5-propylbenzene]
mosquitoes landed on the volunteer (in 3 minutes, negative control 60.7±2.5 landings): 15.7±3.1
Spatial Repellence (large scale assay, 25 m3 chambers, compound released in the air): 43.9 ± 9.1%
Protective efficacy (large scale assay, probing on volunteer forearm, 3 minutes): 74.2 ± 4.4%
mosquito entered the treated chamber (negative control 82.5±3.7%): 46.3±7.5%
